Source: patent publication US11926826B2, “Twist signaling inhibitor compositions and methods of using the same” (City of Hope, priority 2016, dated 2024)

Legend:
Format in all cases: cell-based, human
N-Cadherin mRNA = experiment: qPCR after YTZ3-15 delivery of siTwist in SUM 1315: N-Cadherin; details: delivered via YTZ3-15; after seven days
Experimental: (§1) Cell Culture, Transfection, and Stable Cell Line Production. SUM 1315 breast cancer cells were obtained from ATCC (Manassas, VA). Cells were maintained at 37° C., 5% CO2, and 90% humidity in a tissue culture incubator. Media for SUM 1315 cells consisted of a 50-50 mixture of DMEM and F12 media, supplemented with 5 μg/ml insulin, 10 ng/ml EGF, 5% fetal bovine serum, and 1% penicillin/streptomycin. Cells were passaged using 0.25% trypsin (Genesee Scientific, San Diego, CA) every 2-3 days as they reached confluency. […]
(§2) Quantitative PCR. […] RNA quantity and quality was measured and analyzed (with 260/280 nm and 260/230 nm spectra measurements) using a NanoDrop ND-1000 (Thermo Fisher Scientific, Waltham, MA). […] Quantitative RT-PCR was performed in quadruplicate using Maxima SYBR Green Master Mix (Thermo Fisher Scientific, Waltham, MA) in 25 μl reactions. […] Data were analyzed using Bio-Rad iQ5 software using the 2^−ΔΔ^Ct method and normalized to Actin. […]

Vimentin mRNA = experiment: qPCR after YTZ3-15 delivery of siTwist in SUM 1315: Vimentin; details: delivered via YTZ3-15; after one day
Experimental: as §1, §2

SUM 1315 cells = experiment: Wound healing assay, SUM 1315; details: YTZ3-15 transfection; compared to siQ
Experimental: Wound Healing Assay. To examine direction cell migration in vitro wound healing assays were performed as described previously. In summary, SUM 1315 cells (parental, eGFP+luc, shScram, shTwistA, and shTwistB) were grown in the conditions described above (2.1) in 6-well tissue culture plates. Once cells reached 80% confluency, a sterile 200 μl pipette tip was used to scratch a line in the monolayer of cells. Images were taken immediately after the scratch and at several time points thereafter using a Nikon TE-2000S microscope and SPOT Advanced software (Diagnostic Instruments, Sterling Heights, MI). Care was taken to always capture images in the same location for each time point. Additionally, SUM 1315 cells were transfected with siQ, siTwistA, or siTwistB using YTZ3-15 at a 50 nM final concentration. Cells were incubated with YTZ3-15+siRNA for 24 hours at 37° C., 5% CO2, and 90% humidity in a tissue culture incubator; the plates were then scratched with the 200 μl pipette tip.

si419: anti-TWIST siRNA; passenger 5′-GGACAAGCUGAGCAAGAUU-3′ (SEQ ID No: 1), guide 5′-AAUCUUGCUCAGCUUGUCCUU-3′ (SEQ ID No: 2) (listed as RNA, chemistry not fully specified)
N-Cadherin mRNA decrease (N-Cadherin mRNA): approximately 90%
Vimentin mRNA level (Vimentin mRNA): nearly undetectable
directional migration (SUM 1315 cells): decreased directional migration
